Measured values from the NIST ThermoML archive (doi:10.1021/je500450w).
Numbers after ± are expanded uncertainties.

Details: 101 kPa, Liquid mixture 1

| interfacial tension (293.2 K, Drop weight) [mN/m] | interfacial tension (298.2 K, Drop weight) [mN/m] | interfacial tension (303.2 K, Drop weight) [mN/m] | interfacial tension (308.2 K, Drop weight) [mN/m] | interfacial tension (313.2 K, Drop weight) [mN/m] | interfacial tension (318.2 K, Drop weight) [mN/m] | interfacial tension (323.2 K, Drop weight) [mN/m] | interfacial tension (328.2 K, Drop weight) [mN/m] | interfacial tension (333.2 K, Drop weight) [mN/m] | interfacial tension (343.2 K, Drop weight) [mN/m] | interfacial tension (338.2 K, Drop weight) [mN/m] | interfacial tension (293.2 K) [mN/m] | interfacial tension (298.2 K) [mN/m] | interfacial tension (303.2 K) [mN/m] | interfacial tension (313.2 K) [mN/m] | interfacial tension (323.2 K) [mN/m] | interfacial tension (333.2 K) [mN/m] | interfacial tension (343.2 K) [mN/m] | Compound |
| --- | --- | --- | --- | --- | --- | --- | --- | --- | --- | --- | --- | --- | --- | --- | --- | --- | --- | --- |
| 50.81 ± 0.46 | 50.49 ± 0.45 | 50.11 ± 0.45 | 49.68 ± 0.45 | 49.28 ± 0.44 | 48.84 ± 0.44 | 48.46 ± 0.44 | 47.94 ± 0.43 | 46.92 ± 0.43 | – | – | – | – | – | – | – | – | – | CCCCCC [hexane] + O |
| 7.37 ± 0.12 | 7.49 ± 0.13 | 7.6 ± 0.13 | – | 7.7 ± 0.13 | – | 7.86 ± 0.13 | – | 7.9 ± 0.13 | 7.87 ± 0.13 | – | – | – | – | – | – | – | – | CCCCCCO [hexan-1-ol] + O |
| 51.3 ± 0.46 | 50.87 ± 0.46 | 50.35 ± 0.45 | 49.84 ± 0.45 | 49.6 ± 0.45 | 49 ± 0.44 | 48.54 ± 0.44 | 48.1 ± 0.44 | 47.73 ± 0.43 | 46.7 ± 0.42 | 47.28 ± 0.43 | – | – | – | – | – | – | – | CCCCCCC [heptane] + O |
| 34.82 ± 0.33 | 34.06 ± 0.33 | 33.64 ± 0.32 | 32.87 ± 0.32 | 32.1 ± 0.31 | 31.62 ± 0.31 | 30.95 ± 0.3 | 30.92 ± 0.3 | 30.52 ± 0.3 | – | – | – | – | – | – | – | – | – | c1ccccc1 [benzene] + O |
| 6.37 ± 0.12 | 6.44 ± 0.12 | 6.52 ± 0.12 | – | 6.6 ± 0.12 | – | 6.62 ± 0.12 | – | 6.58 ± 0.12 | 6.46 ± 0.12 | – | – | – | – | – | – | – | – | CCCCCCCO [heptan-1-ol] + O |
| 51.95 ± 0.46 | 51.54 ± 0.46 | 51.11 ± 0.46 | 50.68 ± 0.46 | 50.23 ± 0.45 | 49.63 ± 0.45 | 49.09 ± 0.44 | 48.46 ± 0.44 | 48.03 ± 0.43 | 46.96 ± 0.43 | 47.61 ± 0.43 | – | – | – | – | – | – | – | CCCCCCCCC [nonane] + O |
| 8.02 ± 0.13 | 8.19 ± 0.13 | 8.42 ± 0.13 | – | 8.62 ± 0.13 | – | 8.83 ± 0.13 | – | 9.02 ± 0.13 | 9.02 ± 0.13 | – | – | – | – | – | – | – | – | CCCCCCCCO [octan-1-ol] + O |
| – | – | – | – | – | – | – | – | – | – | – | 8.18 ± 0.25 | 8.48 ± 0.26 | 9 ± 0.26 | 9.15 ± 0.27 | 9.86 ± 0.28 | 9.67 ± 0.27 | 9.72 ± 0.27 | CCCCCCCCCO [nonan-1-ol] + O |
| 51.67 ± 0.46 | 51.2 ± 0.46 | 50.78 ± 0.46 | 50.28 ± 0.45 | 49.9 ± 0.45 | 49.31 ± 0.44 | 48.86 ± 0.44 | 48.34 ± 0.44 | 47.81 ± 0.43 | 46.82 ± 0.43 | 47.33 ± 0.43 | – | – | – | – | – | – | – | CCCCCCCC [octane] + O |
